Key:
[1] = tested on: statin-treated patients in the icosapent ethyl group; assay: Example 5: new heart failure by on-treatment EPA tertile (post hoc); type: in vivo, human; details: for New heart failure requiring hospitalization: HR vs lowest on treatment EPA tertile / New heart failure: HR vs lowest on treatment EPA tertile: post hoc, icosapent ethyl group only
Description: The mechanical or surgical intervention including mechanical circulatory support (e.g., intra-aortic balloon pump, ventricular assist device) and/or mechanical fluid removal (e.g., ultrafiltration, hemofiltration, dialysis).
New Heart Failure/Heart Failure Not Requiring Hospitalization: is defined as an event that meets all of the following: the patient has an urgent, unscheduled office/practice or emergency department visit for a primary diagnosis of HF, but not meeting the criteria for a HF hospitalization; all signs and symptoms for HF hospitalization must be met as defined in A Heart Failure Hospitalization above; and the patient receives initiation or intensification of treatment specifically for HF, as detailed in the above section with the exception of oral diuretic therapy, which was not sufficient.
The study design was the same as that described above in Example 1 related to the REDUCE-IT clinical trial.
Prespecified tertiary endpoints of NHF (HR=0.95; 95% CI, 0.77-1.17; p=0.63) and NHF requiring hospitalization (HR=0.97; 0.77-1.22; p=0.78) from the REDUCE-IT clinical trial were not significant.

[2] = tested on: statin-treated patients with elevated triglycerides; assay: Example 3: total (first and subsequent) ischemic events analysis (negative binomial, modified Wei-Lin-Weissfeld, Andersen-Gill, joint frailty); type: in vivo, human; details: for Adjusted HR, total events / Unadjusted HR, total events / Adjusted HR, first event / Adjusted HR, second event / Adjusted HR, third event / Unadjusted HR, first event / Unadjusted HR, second event / Unadjusted HR, third event / Adjusted RR, total events / Unadjusted RR, total events / HR, Cardiovascular Death / HR, Non-fatal Cardiovascular Event: vs placebo; for Adjusted HR, first event / Adjusted HR, second event / Adjusted HR, third event / Unadjusted HR, first event / Unadjusted HR, second event / Unadjusted HR, third event: modified WLW; for HR, Cardiovascular Death / HR, Non-fatal Cardiovascular Event: joint frailty model; for Fatal events, %: after reduction
Description: The following study was a multi-center, placebo-controlled clinical trial the details of which are described above in Example 1, the REDUCE-IT design. […] The main outcomes were total primary composite endpoint events defined as cardiovascular death, nonfatal myocardial infarction, nonfatal stroke, coronary revascularization, or hospitalization for unstable angina and total key secondary composite endpoint events defined as cardiovascular death, nonfatal myocardial infarction, or nonfatal stroke. In the context of this study, total events refer to any first event as well as any subsequent event. Differences in total events were determined using other statistical models, including Andersen-Gill, Wei-Lin-Weissfeld (Li and Lagakos), both pre-specified, and a post hoc and joint-frailty analysis.
For the present prespecified analysis, the primary outcome was the total of first plus subsequent ischemic events consisting of the composite of cardiovascular death, nonfatal myocardial infarction, nonfatal stroke, coronary revascularization, or hospitalization for unstable angina. […] Exploratory analyses of the total of first and subsequent events were also performed for the key secondary composite endpoint.
Baseline characteristics were compared between treatment groups using the chi-squared test for categorical variables and the Wilcoxon rank sum test for continuous variables. There are several methods for analyzing first and subsequent (recurrent) event data. As a pre-specified statistical method, a negative binomial regression was used to calculate rates and rate ratios for total cardiovascular events, which accounts for the variability in each patient's risk of events. As pre-specified supportive analyses, the modified Wei-Lin-Weissfeld method (Li and Lagakos modification) was used to calculate hazard ratios (HRs) for the time to the first event, second event, or third event. An additional pre-specified analysis, the Andersen-Gill model using a Cox proportional-hazard with the counting-process formulation was performed to model the total events. In addition, in order to account for informative censoring due to cardiovascular death, the HR for total non-fatal events was calculated using a joint frailty model (See Rondeau V. Joint frailty models for recurring events and death using maximum penalized likelihood estimation: application on cancer events. Biostatistics. 2007; 8:708-21). The joint frailty model simultaneously estimates hazard functions for non-fatal and fatal CV events and takes into account the fact that patients who are prone to have nonfatal events have an elevated risk of a cardiovascular death. The application of the joint frailty model used a gamma distribution for the frailty term.
Statistical analyses using the full adjudicated endpoint events dataset without exclusions using this bundling approach were also determined.

[3] = key secondary composite endpoint, Andersen-Gill (I), full dataset
[4] = key secondary composite endpoint, Andersen-Gill (I), reduced dataset
[5] = key secondary composite endpoint, Andersen-Gill (II), full dataset
[6] = key secondary composite endpoint, Andersen-Gill (II), reduced dataset
[7] = key secondary composite endpoint, full dataset
[8] = key secondary composite endpoint, reduced dataset
[9] = key secondary composite endpoint, negative binomial, full dataset
[10] = key secondary composite endpoint, negative binomial, reduced dataset
[11] = key secondary endpoint, adjusted, reduced dataset
[12] = key secondary endpoint, unadjusted, reduced dataset
[13] = primary composite endpoint, Andersen-Gill (I), full dataset
[14] = primary composite endpoint, Andersen-Gill (I), reduced dataset
[15] = primary composite endpoint, Andersen-Gill (II), full dataset
[16] = primary composite endpoint, Andersen-Gill (II), reduced dataset
[17] = primary composite endpoint, full dataset
[18] = primary composite endpoint, reduced dataset
[19] = primary composite endpoint, negative binomial, full dataset
[20] = primary composite endpoint, negative binomial, reduced dataset
[21] = primary endpoint, adjusted, reduced dataset
[22] = primary endpoint, unadjusted, reduced dataset

CC/C=C\C/C=C\C/C=C\C/C=C\C/C=C\CCCC(=O)OCC [icosapent ethyl, eicosapentaenoic acid ethyl ester]
0.47: New heart failure requiring hospitalization: HR vs lowest on treatment EPA tertile ([1]; middle EPA tertile)
30%: Total (first and subsequent) ischemic events for the primary composite endpoint: relative risk reduction ([2]; in vivo)
0.72: Adjusted HR, total events [2, 4] | Unadjusted HR, total events [2, 4] | Adjusted HR, total events [2, 6] | Unadjusted HR, total events [2, 6] | Adjusted RR, total events [2, 10] | Total key secondary endpoint events: RR vs placebo ([2]; negative binomial)
42.0%: Total events before reduction, % ([2]; key secondary endpoint, share of overall events)
0.74: Adjusted HR, first event [2, 7] | Unadjusted HR, first event [2, 7] | Adjusted HR, first event [2, 8] | Unadjusted HR, first event [2, 8]
0.69: Adjusted HR, total events [2, 14] | Unadjusted HR, total events [2, 14] | Adjusted HR, total events [2, 16] | Unadjusted HR, total events [2, 16] | Unadjusted HR, second event [2, 17] | Adjusted HR, third event [2, 18] | Unadjusted HR, second event [2, 18] | Unadjusted HR, third event [2, 18] | Adjusted RR, total events [2, 19]
41.0%: Total events after reduction, % ([2]; primary endpoint, multiple endpoints in a single calendar day handled as a single event)
0.66: HR, Non-fatal Cardiovascular Event [2, 22]
45.0%: Fatal events, % ([2]; key secondary endpoint) | Fatal events, % ([2]; primary endpoint)
above 104 μg/mL: Achieved EPA level with statistically and clinically meaningful risk reductions in NHF ([1]; EPA tertile analyses within icosapent ethyl group)
0.80: HR, Cardiovascular Death [2, 21] | HR, Cardiovascular Death [2, 22]
0.68: HR, Non-fatal Cardiovascular Event [2, 11] | HR, Non-fatal Cardiovascular Event [2, 12] | Adjusted HR, total events [2, 13] | Unadjusted HR, total events [2, 13] | Adjusted HR, total events [2, 15] | Unadjusted HR, total events [2, 15] | Adjusted HR, second event [2, 17] | Adjusted HR, second event [2, 18] | Unadjusted RR, total events [2, 20]
0.70: Adjusted HR, third event [2, 17] | Unadjusted HR, third event [2, 17] | Adjusted RR, total events [2, 20]
0.75: Adjusted HR, second event [2, 7] | Unadjusted HR, second event [2, 7] | Adjusted HR, second event [2, 8] | Unadjusted HR, second event [2, 8] | Adjusted HR, first event [2, 17] | Adjusted HR, first event [2, 18]
0.67: Unadjusted RR, total events [2, 19] | HR, Non-fatal Cardiovascular Event [2, 21]
0.41: New heart failure: HR vs lowest on treatment EPA tertile ([1]; upper EPA tertile)
0.76: Unadjusted HR, first event [2, 17] | Unadjusted HR, first event [2, 18]
0.71: Adjusted HR, total events [2, 3] | Unadjusted HR, total events [2, 3] | Adjusted HR, total events [2, 5] | Unadjusted HR, total events [2, 5] | Adjusted RR, total events [2, 9] | Unadjusted RR, total events [2, 9] | Unadjusted RR, total events [2, 10]
0.55: New heart failure: HR vs lowest on treatment EPA tertile ([1]; middle EPA tertile)
0.45: New heart failure requiring hospitalization: HR vs lowest on treatment EPA tertile ([1]; upper EPA tertile)
0.79: Adjusted HR, third event [2, 7] | Unadjusted HR, third event [2, 7] | Adjusted HR, third event [2, 8] | Unadjusted HR, third event [2, 8] | HR, Cardiovascular Death [2, 11] | HR, Cardiovascular Death [2, 12]
